In patent US20190201419A1, “COMPOUND AND METHOD FOR THE TREATMENT AND DIAGNOSIS OF NEURODEGENERATIVE CONDITIONS” (Swansea University, priority 2013, published 2019):

Experiments:
Lxrβ-LBD = target: T1, Lxrβ-LBD (Homo sapiens, UniProt P55055); assay: Lanthascreen TR-FRET Lxrβ coactivator assay; format: binding
T1 construct: the Lxrβ-LBD tagged with glutathione-S-transferase (GST); purchased Invitrogen
T1 sequence (P55055 222-460 limits assumed): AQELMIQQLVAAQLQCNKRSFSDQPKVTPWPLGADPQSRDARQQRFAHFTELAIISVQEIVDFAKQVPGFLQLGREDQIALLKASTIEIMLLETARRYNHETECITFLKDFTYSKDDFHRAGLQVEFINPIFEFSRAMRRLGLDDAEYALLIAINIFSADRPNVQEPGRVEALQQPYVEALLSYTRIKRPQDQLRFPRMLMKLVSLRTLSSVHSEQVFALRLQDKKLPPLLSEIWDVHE
From the text: Lxrβ Ligand Binding Assay. For Lxrβ ligand binding activity measurement, the applicants used the Lanthascreen™ TR-FRET Lxrβ Coactivator Assay (Invitrogen). The assay uses a terbium (Tb)-labeled anti-GST antibody, a fluorescein-labeled coactivator peptide and the Lxrβ-LBD tagged with glutathione-S-transferase (GST). Binding of the agonist/ligand to Lxrβ-LBD causes a conformational change that result in an increase in the affinity of the Lxrβ for the coactivator peptide. The close proximity of the fluorescently labeled coactivator peptide to the Tb-labeled antibody causes an increase in the TR-FRET signal intensity. The TR-FRET ratio of 520/495 was calculated using a Victor multi label reader with an excitation wavelength of 340 nm and emission wavelengths of 520 nm and 495 nm, The activational capacity of potential ligands was tested in a […] polypropylene plate, following the manufacturer's protocol.

[1] = system: Abca1, Abcg1 and Srebf1 transcript levels; assay: Quantitative PCR of Lxr target genes in SN4741 cells; format: cell-based, mouse; details: 3 h
Description: (§1) Quantitative PCR, Total RNA was extracted from SN4741. cells and zebrafish treated with the compounds of interest using the RNeasy Mini Kit (Qiagen), 1 μg was treated with RQ1 RNase-free DNase (Promega) and reverse transcribed using SuperScript II Reverse Transcriptase (invitrogen) and random primers (invitrogen) (RT+reaction). Parallel reactions without reverse transcriptase enzyme were done as a control (RT−reaction), and Sybergreen real-time quantitative PCR assays were performed. Expression levels were obtained by normalization with the Value of the housekeeping gene encoding actin obtained for every sample in parallel assays.

active caspase 3+ cells = assay: Active caspase 3+ cells in mouse E11.5 brain primary cultures; format: cell-based; details: for Number of active caspase-3+ cells: wt cultures, 3β,7α-diHCA, 3βH,7O-CA, 25-HC at 10 μM, toxic acids at low concentrations
Description: (§2) Primary Brain Cultures. Brains from E11.5 mice were manually dissected, plated on poly-D-lysine (150,000 cells/cm^2) and grown in serum-free N2 media consisting of 1:1 mixture of F12 and DMEM with 10 ng/mL insulin, 100 μg/mL apo-transferrin, 100 μM putrescine, 20 nM progesterone, 30 nM selenium, 6 mg/mL glucose, and 1 mg/mL BSA. Cells were treated for 3 days in vitro (DIV) with the compounds of interest, fixed with 4% PFA and processed for staining using appropriate antibodies.
(§3) Antibodies and Detection Procedures. Cells were fixed in 4% PFA, washed in PBS and blocked in 5% normal goat serum/PBS for 1 h at room temperature. Primary antibodies were diluted in PBS (pH 7.4), 0.3% Triton X-100, 1% BSA and incubations were carried out overnight at +4° C. or at room temperature for 2 h. The antibodies used were anti-:BrdU (1:400; Abeam), Islet-1 (1:100: Developmental Studies Hybridoma Bank), cleaved caspase-3 (Aspt 75) (1:100; Cell Signaling Technology), tyrosine hydroxylase (TH; 1:1000; Pel-Freeze) GABA (1:1,000; Sigma), Bm3a (1:250; Millipore), Nkx6.1 (1:200; Novus Biologicals), choline acetyltransferase (ChAT; 1:500; Millipore) and appropriate secondary antibodies (Jackson ImmunoResearch or Alexa). Cells positive for the corresponding marker were counted directly at the microscope at a magnification of 20×. Cells were counted in every well, in eight consecutive fields (going from one side of the well to the other, passing through the center), in three different wells per experiment and in three different experiments per condition. Random pictures of the wells were taken for every condition to document the result, and representative pictures were subsequently selected to represent the quantitative data. Photos were acquired with a Zeiss Axioplan microscope and a Hamamatsu camera C4742-95 using the Openlab software.

zebrafish embryos = assay: Survival of transgenic zebrafish embryos on compound exposure; format: in vivo
Description: (§4) Zebrafish Strain and Maintenance Zebrafish were raised on a 14/10 h day/night cycle and were kept at 28.5 ° C. Islet-1:GFP transgenic embryos were obtained via natural spawning and staged in hours or days post fertilization (hpf and dpt) according to Kimmel et al). Embryos older than 24 hpf were treated with 0.03% phenylthiourea (PTU) to inhibit pigmentation. MO injections were performed using splice site specific zebrafish lxi MO MO injected embryos were immediately dechorionated and transferred to a 96 well plate and exposed to dimethyl sulfoxide (DMSO) treated or ligand treated medium. Compound Exposure. Islet-1:GFP embryos were collected by natural mating and immediately (at 1 cell stage) dechorionated and transferred to a 96 well plate. Each of the compounds tested were obtained as 10 mM stock and diluted in embryo medium to a final concentration of 10 μM, and 200 μL was added to each well. DMSO or propan-2-ol treated embryo medium was taken as control. Ligand solutions were replaced every 12 h with fresh ligand solution prepared in PTU treated embryo medium. Embryos were collected at 48 hpf, fixed for 4 h at room temperature with 4% paraformaldehyde and then washed and kept in PBST. Immunocytochemistry was performed using an anti-GFP antibody and fluorescence was viewed and photographed using a Zeiss Axioplan compound microscope and a Zeiss Axiocam digital camera.

Lxrβ = target: T2, Lxrβ (Homo sapiens, UniProt P55055); assay: Lxrβ luciferase reporter assay in SN4741 neural cells; format: cell-based, mouse; details: for Lxrβ activation, luciferase activity (fold activation): SN4741 cells, 10 μM, 24 h
T2 construct: expressed in transfected cells; host or cells: SN4741 mouse neuronal cell line
T2 sequence (P55055 1-460): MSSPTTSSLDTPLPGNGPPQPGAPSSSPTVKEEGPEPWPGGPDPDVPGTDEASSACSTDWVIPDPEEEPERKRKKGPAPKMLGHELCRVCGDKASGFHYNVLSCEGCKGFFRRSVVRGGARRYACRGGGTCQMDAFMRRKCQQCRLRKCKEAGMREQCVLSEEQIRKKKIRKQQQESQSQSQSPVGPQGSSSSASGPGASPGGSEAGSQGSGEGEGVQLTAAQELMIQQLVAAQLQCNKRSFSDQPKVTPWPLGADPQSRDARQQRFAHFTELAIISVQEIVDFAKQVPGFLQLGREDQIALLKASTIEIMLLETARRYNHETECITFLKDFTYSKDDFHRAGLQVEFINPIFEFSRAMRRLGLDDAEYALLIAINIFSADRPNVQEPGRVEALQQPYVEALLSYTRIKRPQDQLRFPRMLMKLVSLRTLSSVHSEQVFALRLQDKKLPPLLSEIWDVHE
From the text: (§5) Luciferase Reporter Assay.

Lxrα = target: T3, Lxrα (Homo sapiens, UniProt Q13133); assay: Lxrα luciferase reporter assay in SN4741 neural cells; format: cell-based, mouse; details: for Lxrα activation, luciferase activity (fold activation): 10 μM, 24 h
T3 construct: expressed in transfected cells; host or cells: SN4741 mouse neuronal cell line
T3 sequence (Q13133 1-447): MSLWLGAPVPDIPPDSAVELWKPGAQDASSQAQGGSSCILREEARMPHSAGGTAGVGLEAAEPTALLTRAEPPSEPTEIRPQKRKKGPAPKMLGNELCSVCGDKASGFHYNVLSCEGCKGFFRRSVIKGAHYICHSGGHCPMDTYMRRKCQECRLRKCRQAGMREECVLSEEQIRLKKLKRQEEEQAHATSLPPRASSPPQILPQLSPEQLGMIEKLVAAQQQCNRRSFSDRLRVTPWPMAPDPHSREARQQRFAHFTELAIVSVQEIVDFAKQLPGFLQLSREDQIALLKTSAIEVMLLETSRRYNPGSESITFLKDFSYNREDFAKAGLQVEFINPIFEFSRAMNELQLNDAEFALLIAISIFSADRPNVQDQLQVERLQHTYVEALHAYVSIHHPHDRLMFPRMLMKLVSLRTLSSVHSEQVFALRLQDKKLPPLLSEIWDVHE
From the text: as §5

[2] = system: Islet1+ oculomotor neurons; assay: Islet1+ cells in mouse E11.5 brain primary cultures; format: cell-based; details: for Number of Islet1+ cells / Concentration giving significant difference from vehicle in Islet1+ cells: wild type cultures; for Concentration giving significant difference from vehicle in Islet1+ cells: p<0.05; for Effect on Islet1+ cells in Lxrα−/−β−/− cultures: cultures from Lxrα−/−β−/− mice; for Effect on Islet1+ cells with Lxr antagonist GGPP: wt cultures, 10 μM GGPP
Description: as §2, §3

Islet-1 = Islet-1 expression in Tg[Isl1:GFP] zebrafish embryos; format: in vivo; details: 10 μM
Description: as §1, §4

[3] = system: TH+ dopamine neurons, GABAergic or red nucleus neurons; Nkx6.1+ cells; assay: Other cell types in mouse E11.5 brain primary cultures; format: cell-based; details: data not shown
Description: as §2, §3

abca1 = abca1 expression in zebrafish embryos; format: in vivo; details: 10 μM
Description: as §1
Zebrafish Strain and Maintenance Zebrafish were raised on a 14/10 h day/night cycle and were kept at 28.5 ° C. Islet-1:GFP transgenic embryos were obtained via natural spawning and staged in hours or days post fertilization (hpf and dpt) according to Kimmel et al). Embryos older than 24 hpf were treated with 0.03% phenylthiourea (PTU) to inhibit pigmentation. […] Immunocytochemistry was performed using an anti-GFP antibody and fluorescence was viewed and photographed using a Zeiss Axioplan compound microscope and a Zeiss Axiocam digital camera.

[4] = LC-ESI-MSn of cholestenoic acids in mouse brain; details: 23 month old male Cyp7b1−/− mice
From the text: Animals. Lxra,−/−β−/− mouse cell cultures were from the colony at the Department of Biosciences and Nutrition at Novum, Karolinska Institutet. Male and female wild-type and Lxrα−/−β−/− mice were generated as previously described (Alberti et al. J. Clin. Invest 2001:107(5), 565-73). Mice were back crossed onto a C57BL/6 background for 10 generations. Male Cyp7b1−/− mouse brain and plasma were from animals generated at the University of Edinburgh. Male mice homozygous for targeted disruption of the Cyp7b1 gene congenic on the C57BL/6 genetic background (>15 generations backcrossed to C57BL/6) and wild-type littermate controls were generated from Cyp7b1−/+ crosses. Male cyp27a1−/− mouse tissue and plasma was purchased from The Jackson Laboratory (ME, USA) strain B6.129-Cyp27a1^tm1Elt/J. The Cyp27a1−/− colony was backcrossed to C57BL/6J inbred mice for approximately 12 generations by the donating investigator prior to sending to The Jackson Laboratory Repository. Upon arrival, mice were bred to C57BL/6J inbred mice for at least one generation to establish the colony. Wild type animals from the colony were used as controls.
Extraction of Sterols. […]
Charge Tagging of Sterols. The sterols were charge-tagged with the GP-hydrazine to enhance their response when analysed by LC-ESI-MS and tandem mass spectrometry (MS^n).

Structure (SMILES) | Number of active caspase-3+ cells (active caspase 3+ cells) | Lxrβ activation, luciferase activity (fold activation) (Lxrβ) | Lxrα activation, luciferase activity (fold activation) (Lxrα) | Number of Islet1+ cells [2] | Concentration giving significant difference from vehicle in Islet1+ cells [2] | Islet-GFP expression (Islet-1; embryos 48 hpf) | Effect on Islet1+ cells in Lxrα−/−β−/− cultures [2] | Effect on Islet1+ cells with Lxr antagonist GGPP [2] | further results
CC(CCC[C@@H](C)[C@H]1CC[C@H]2[C@@H]3[C@@H](O)C=C4C[C@@H](O)CC[C@]4(C)[C@H]3CC[C@]12C)C(=O)O (stereo partly drawn) [3β,7β-diHCA, 3β,7β-dihydroxycholest-5-en-26-oic acid] | increased the number of active caspase-3+ cells | have the ability to activate both Lxrs | have the ability to activate both Lxrs | caused the loss of Islet1+ cells in the cultures | ≥ 2 µM | – | – | – | Competition with the effect of 3β,7α-diHCA in TR-FRET (Lxrβ-LBD; 3β,7α-diHCA at 10 μM plus increasing concentrations of competitor): the effect of 3β,7α-diHCA was reduced to that of the latter acids; Competitor concentration giving significant difference from 10 μM 3β,7α-diHCA alone in TR-FRET (Lxrβ-LBD; p<0.05 vs 10 μM 3β,7α-diHCA): ≥ 2; Abca1, Abcg1 and Srebf1 transcript levels [1]: induced transcription, but to a lesser extent; Surviving cells in cultures (active caspase 3+ cells; 10 μM): no surviving cells were detected; Concentration at which toxicity is initiated (active caspase 3+ cells; mouse, primary brain cultures from E11.5 mouse embryos, 3 days): 1000 nM; Concentration giving significant difference from vehicle in active caspase 3+ cells (active caspase 3+ cells; p<0.05): ≥ 2 µM; Toxic effect on survival of the fish (zebrafish embryos): had a deleterious toxic effect which impaired the survival of the fish; Lxr activational capacity in combination with 22R-HC (Lxrβ; 10 μM acid + 10 μM 22R-HC): No additive effect was observed
CC(CCC[C@@H](C)[C@H]1CC[C@H]2[C@@H]3C(=O)C=C4C[C@@H](O)CC[C@]4(C)[C@H]3CC[C@]12C)C(=O)O (stereo partly drawn) [3βH,7O-CA, 3β-hydroxy-7-oxocholest-5-en-26-oic acid] | did not affect the number of active caspase-3+ cells | have the ability to activate both Lxrs | have the ability to activate both Lxrs | increased the number of Islet1+ oculomotor cells in the cultures | ≥ 10 µM | increased Islet-GFP expression | eliminated | blocked by the Lxr antagonist GGPP | Islet-1 mRNA and protein level (qPCR, western blot) (Islet-1): accompanied by an increase in the level of Islet-1 mRNA and protein; Number of Islet1+ cells in cranial nerves (III, IV, V, VII, X) (Islet-1; embryos 48 hpf): had no significant effect on the number of Islet1+cells; Islet-GFP levels after lxr morpholino injection (Islet-1; lxr MO vs control scrambled MO): lxr MO injections abolished the in vivo increase in Islet-GFP levels; Number of other midbrain neurons (TH+ dopamine, GABAergic, red nucleus) [3]: did not affect the number of other midbrain neurons; abca1 expression (abca1): enhanced expression of abca1
C[C@H](CCCC(C)(C)O)[C@H]1CC[C@H]2[C@@H]3CC=C4C[C@@H](O)CC[C@]4(C)[C@H]3CC[C@]12C [25-HC, cholest-5-ene-3β,25-diol] | reduced the number of active caspase-3+ cells | activate Lxr | activate Lxr | increase the number of Islet1+ oculomotor cells | – | induced a modest increase in the levels of islet-1 | blocked in cultures from Lxrα−/−β−/− animals | inhibited by the Lxr antagonist GGPP | Level in Cyp7b1−/− mouse brain [4]: > 2 ng/mg; Lxr luciferase activity with addition of the Lxr antagonist GGPP (Lxrα; 10 μM metabolite + 10 μM GGPP): similarly blocked
